Measurements reported in publication PMC5114558, “Reader domain specificity and lysine demethylase-4 family function” (Nature Communications, 2016).
Residue numbers refer to the chain shown, from its start. pKd: −log10 of the molar value.

Key:
[1] = test system: KDM4B full-length protein; assay: MS-based demethylation assay, full-length KDM4B; type: biochemical, human; conditions: 0.2 μM enzyme, 5–10 μM peptide, pH 7.5, 25 °C, MS read-out; single peptide substrates; Fig. 6a,b
Method: In a typical demethylase reaction, the assay mixture containing 50 mM Tris pH 7.5, 50 mM NaCl, 50 μM (NH4)2Fe(SO4)2, 0.5 mM ascorbic acid, 1 mM α-ketoglutarate and 0.2 μM full-length KDM4A–C (Active Motif) was mixed with 5–10 μM of trimethylated histone peptides (detailed sequence information in Supplementary Table 1). Each peptide concentration was quantified by measuring Abs280nm for peptides containing either tryptophan or tyrosine residue. After incubation of assay mixture at 25 °C for 10, 30 and 60 min time point, 10 μl of aliquot was transferred to a clean tube containing 5 μl of 5% formic acid to quench the reaction. Each quenched sample was treated with standard StageTip protocol using C18 extraction disk (Model 2215, Empore, 3 M) to remove excess salts and detergents in the reaction mixture. Each eluate from StageTip containing peptides was dried at a reduced pressure (vacuum centrifuge) and was re-suspended with 10 μl of 5% acetonitrile solution (0.1% formic acid). The 1 μl of the sample was injected at 0.7 μl min^−1 flow rate onto a Dionex Ultimate 3000 Nano LC system equipped with Atlantis dC18 NanoEase reverse-phase column (3 μm, 100 μm × 150 mm, Waters) and coupled to a hybrid quadrupole-orbitrap MS (Q-Exactive, Thermo Scientific). The peptide was eluted at 4–15 min retention time with a linear gradient of 2–35% acetonitrile (0.1% formic acid). All the solvents used for liquid chromatography MS were HPLC grade (Fisher). For each analysis, MS1 scan range of 300–1,100 m/z was used and data-dependent MS/MS was obtained to identify the site of demethylation. Each peptide peak and its area integration was performed on the XCalibur Qual Browser.

[2] = target: T1, KDM4C DTD (human KDM4C double tudor domain, 877–991aa) (Homo sapiens, UniProt Q9H3R0); assay: fluorescence polarization (FP) binding, KDM4C-DTD wild-type; conditions: matrix Fig. 1d, pH 7.4, read-out: binding affinity (Kd), KDM4C DTD
T1 construct: DNA encoding DTDs (KDM4A 895–1011aa, KDM4B 917–1031aa and KDM4C 877–991aa); (His)6-HaloTag (pFN29) or (His)6 (pET28b); made in house; host or cells: Escherichia coli BL21 (DE3)
T1 sequence (Q9H3R0 877-991): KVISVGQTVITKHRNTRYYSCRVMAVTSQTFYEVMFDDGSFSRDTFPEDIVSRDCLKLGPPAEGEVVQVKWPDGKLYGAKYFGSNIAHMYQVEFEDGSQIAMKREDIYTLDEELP
Excerpt: (§1) KDM4 protein sequences used in this study correspond to Uniprot ID: O75164 (human KDM4A, isoform 1), O94953 (human KDM4B, isoform1) and Q9H3R0 (human KDM4C, isoform1). Plasmid encoding KDM4A DTD was kindly provided by R-M Xu (Chinese Academy of Sciences). Complementary DNA encoding human KDM4B-DTD was synthesized (Integrated DNA Technologies). Plasmid containing cDNA of full-length KDM4C (clone ID: HsCD00341594) was obtained from Harvard Plasmid Repository. DNA encoding DTDs (KDM4A 895–1011aa, KDM4B 917–1031aa and KDM4C 877–991aa) were cloned into pFN29 (Promega) with N-terminal (His)6-HaloTag or pET28b with N-terminal (His)6 Tag using In-Fusion HD cloning kit (Clontech). […]
(§2) Peptide sequences are given in Supplementary Table 1. […] Polarization at each concentration was measured as triplicates in 384-well polystyrene black microplates (Thermo Fisher Scientific 262260) by Biotek Synergy H4 multimode plate reader (light source: xenon flash, offset from top: 7 mm, sensitivity: 60%, excitation: 485/20 nm, emission: 528/20 nm, both parallel and perpendicular, normal read speed). Fraction bound (Fb) at each concentration was calculated based on the corresponding polarization values (P): Fbc=(Pc−Pmin)/(Pmax−Pmin), where Pmin is the polarization value of no-protein control and Pmax is the polarization value of the saturation value for that peptide. […]

[3] = target: T2, KDM4A-DTD triple mutant N931D/D939R/D945R (DRR) (Homo sapiens, UniProt O75164, D939R/D945R/N931D); assay: FP binding, KDM4A-DTD DRR mutant; conditions: matrix Fig. 3c, values given in mM, pH 7.4, read-out: binding affinity (Kd), DRR mutant
T2 construct: DNA encoding DTDs (KDM4A 895–1011aa, KDM4B 917–1031aa and KDM4C 877–991aa); (His)6-HaloTag (pFN29) or (His)6 (pET28b); made in house; host or cells: Escherichia coli BL21 (DE3)
T2 sequence (O75164 895-1011 N931D/D939R/D945R): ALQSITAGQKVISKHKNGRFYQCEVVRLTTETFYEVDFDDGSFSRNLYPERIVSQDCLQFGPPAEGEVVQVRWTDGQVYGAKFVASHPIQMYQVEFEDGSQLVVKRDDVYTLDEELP
Excerpt: as §1, §2

[4] = target: T3, KDM4A DTD (human KDM4A double tudor domain, 895–1011aa) (Homo sapiens, UniProt O75164); assay: fluorescence polarization (FP) binding, KDM4A-DTD wild-type; conditions: matrix Fig. 1d and Fig. 3c, pH 7.4, read-out: binding affinity (Kd), KDM4A DTD wild-type
T3 construct: DNA encoding DTDs (KDM4A 895–1011aa, KDM4B 917–1031aa and KDM4C 877–991aa); (His)6-HaloTag (pFN29) or (His)6 (pET28b); made in house; host or cells: Escherichia coli BL21 (DE3)
T3 sequence (O75164 895-1011): T2 sequence (O75164 895-1011 N931D/D939R/D945R) with D37N, R45D, R51D
Excerpt: (§3) KDM4 protein sequences used in this study correspond to Uniprot ID: O75164 (human KDM4A, isoform 1), O94953 (human KDM4B, isoform1) and Q9H3R0 (human KDM4C, isoform1). Plasmid encoding KDM4A DTD was kindly provided by R-M Xu (Chinese Academy of Sciences). Complementary DNA encoding human KDM4B-DTD was synthesized (Integrated DNA Technologies). Plasmid containing cDNA of full-length KDM4C (clone ID: HsCD00341594) was obtained from Harvard Plasmid Repository. DNA encoding DTDs (KDM4A 895–1011aa, KDM4B 917–1031aa and KDM4C 877–991aa) were cloned into pFN29 (Promega) with N-terminal (His)6-HaloTag or pET28b with N-terminal (His)6 Tag using In-Fusion HD cloning kit (Clontech). Plasmids encoding Xenopus laevis core histones were a generous gift of K. Luger (University of Colorado-Boulder). Site-directed mutagenesis was performed with Q5 Site-Directed Mutagenesis Kit (New England Biolabs).
(§4) Peptide sequences are given in Supplementary Table 1. […] A no-protein control with only peptide probe was included. Polarization at each concentration was measured as triplicates in 384-well polystyrene black microplates (Thermo Fisher Scientific 262260) by Biotek Synergy H4 multimode plate reader (light source: xenon flash, offset from top: 7 mm, sensitivity: 60%, excitation: 485/20 nm, emission: 528/20 nm, both parallel and perpendicular, normal read speed). Fraction bound (Fb) at each concentration was calculated based on the corresponding polarization values (P): Fbc=(Pc−Pmin)/(Pmax−Pmin), where Pmin is the polarization value of no-protein control and Pmax is the polarization value of the saturation value for that peptide. Dissociation constants (Kd) were derived by KaleidaGraph, Synergy Software (version 4.1.3) using the following equation: Fb=[protein]/([protein]+Kd).

[5] = target: T4, KDM4B DTD (human KDM4B double tudor domain, 917–1031aa) (Homo sapiens, UniProt O94953); assay: fluorescence polarization (FP) binding, KDM4B-DTD wild-type; conditions: matrix Fig. 1d, pH 7.4, read-out: binding affinity (Kd), KDM4B DTD
T4 construct: DNA encoding DTDs (KDM4A 895–1011aa, KDM4B 917–1031aa and KDM4C 877–991aa); (His)6-HaloTag (pFN29) or (His)6 (pET28b); made in house; host or cells: Escherichia coli BL21 (DE3)
T4 sequence (O94953 917-1031): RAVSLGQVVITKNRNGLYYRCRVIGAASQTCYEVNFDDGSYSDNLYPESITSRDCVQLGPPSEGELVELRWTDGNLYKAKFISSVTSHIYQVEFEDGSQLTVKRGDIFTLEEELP
Excerpt: as §3, §4

[6] = test system: H3K23me3 antibody; assay: H3K23me3 antibody profiling on histone peptide microarray; conditions: scale from zero (no binding) to one (highest binding), Supplementary Fig. 5b-c
Method: Peptide arrays were handled with care and protected from light. All solutions were filtered before putting on the array. Assays were performed with a modified two-chamber simplex gasket (Intuitive Bioscience). After tightening the gasket onto the slide surface, the peptide array was blocked with blocking solution (1 × PBS, 0.05% Tween-20 pH 7.4, 1% BSA) at 4 °C overnight, to reduce nonspecific binding. (1) Reader binding: 10–50 nM purified recombinant HT-KDM4 DTDs were first reacted with excessive HaloTag ligand-biotin (Promega) in blocking solution on ice for 15 min and incubated on peptide array under mild rocking at 4 °C, 1 h. The slide was washed with PBS with 0.05% Tween (PBST) three times and incubated with 1:2,000 streptavidin-conjugated Alexa-Fluor647 (Invitrogen) in blocking solution at room temperature for 1 h. (2) Antibody binding: after blocking, 1:2,500–1:100 dilution H3K23me3 antibody in blocking solution were incubated with peptide microarray under mild rocking at 4 °C, 1 h. The slide was washed with PBST three times and incubated with 1:1,000 anti-rabbit IgG Alexa 647 (Cell Signaling) in blocking solution at room temperature for 1 h. […] Signal intensities were quantified by GenePix Pro 6.1 software (Molecular Devices). […] For each peptide species, an average was calculated from three replicate spots. […]

[7] = test system: KDM4B-DTD; assay: biotinylated histone peptide pull-down, KDM4B-DTD; type: binding, human; conditions: compared with KDM4A and KDM4C DTDs

RKQLATK(Me3)AARK(Me3)SAPATGGW [H3K23me3K27me3, demethylation assay peptide, Peptide 2.0]
demethylation by full-length KDM4B [1]: lack of measurable demethylation

CC(C)C[C@H](NC(=O)[C@H](CCC(N)=O)NC(=O)[C@H](CCCCN)NC(=O)[C@H](CCCNC(=N)N)NC(=O)c1ccc2c(c1)C(=O)OC21c2ccc(O)cc2Oc2cc(O)ccc21)C(=O)N[C@@H](C)C(=O)N[C@H](C(=O)N[C@@H](CCCCN)C(=O)N[C@@H](C)C(=O)N[C@@H](C)C(=O)N[C@@H](CCCNC(=N)N)C(=O)N[C@@H](CCCC[N+](C)(C)C)C(=O)N[C@@H](CO)C(=O)N[C@@H](C)C(=O)N1CCC[C@H]1C(=O)N[C@@H](C)C(=O)N[C@H](C(=O)O)[C@@H](C)O)[C@@H](C)O [H3K27me3]
pKd [2]: 3.99 | Kd [3]: 0.57 mM | pKd [4]: 3.91 | pKd [5]: 3.85

H3K36me3: demethylation assay peptide, Tufts University Core Facility
demethylation by full-length KDM4B [1]: consistent H3K36me3 demethylation | relative signal intensity with H3K23me3 antibody [6]: less than 0.1

ARTK(Me3)QTARKSTE(PEGbiotin)W [H3K4me3 (biotinylated), H3K4me3 peptide for pull-down, PEGbiotin, in-house]
pull-down binding of KDM4B-DTD [7]: Decreased

RKQLATKAARK(Me3)SAPATGGW [H3K27me3 peptide, demethylation assay peptide, Peptide 2.0]
demethylation by full-length KDM4B [1]: did not detect significant demethylation
